The text below walks through data of patent US10759791B2, “Mammalian and bacterial nitric oxide synthase inhibitors” (Northwestern University, priority 2014, dated 2020).

The target in data set [1] is T1, CYP2C8 (Homo sapiens (Human), UniProt P10632). Kind of data set: in vitro. The conditions noted are these: microsomes, pH 7.4.
Data set [2] in a line: in vitro. The conditions noted are these: human, pH 7.4.
The next data set addresses CYP2D6 (Homo sapiens (Human), UniProt P10635). In words: CYP inhibition assay, human liver microsomes. The note with it: pH 7.4.
The target of a further data set is CYP2B6 (Homo sapiens (Human), UniProt P20813). Kind of data set: in vitro. The note with it: microsomes, pH 7.4.
Data set [3] can be described thus: in vitro. The conditions noted are these: human, microsomes, pH 7.4.
The target in a further data set is CYP2C9 (Homo sapiens (Human), UniProt P11712). In words: in vitro. The note with it: microsomes, pH 7.4.
Sequence of CYP2C9 (P11712 whole entry): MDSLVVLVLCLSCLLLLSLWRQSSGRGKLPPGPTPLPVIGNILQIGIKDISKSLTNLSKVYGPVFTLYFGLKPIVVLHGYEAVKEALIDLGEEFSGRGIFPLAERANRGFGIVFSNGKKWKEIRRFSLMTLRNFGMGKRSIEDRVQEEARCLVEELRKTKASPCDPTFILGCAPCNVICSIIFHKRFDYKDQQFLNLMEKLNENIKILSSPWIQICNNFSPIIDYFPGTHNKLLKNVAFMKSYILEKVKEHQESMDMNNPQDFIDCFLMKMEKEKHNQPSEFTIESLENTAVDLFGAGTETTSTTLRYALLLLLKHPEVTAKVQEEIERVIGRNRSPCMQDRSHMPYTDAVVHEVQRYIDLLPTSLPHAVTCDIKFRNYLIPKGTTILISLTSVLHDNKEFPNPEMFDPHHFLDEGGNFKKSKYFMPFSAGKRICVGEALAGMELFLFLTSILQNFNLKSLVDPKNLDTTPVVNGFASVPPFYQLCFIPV
A further data set has as its target CYP1A2 (Homo sapiens (Human), UniProt P05177). In words: CYP inhibition assay, human liver microsomes. The note with it: human, microsomes, pH 7.4. (Microsomes from liver hold many membrane-bound enzymes, among them those of drug oxidation.)
The conditions of data set [4]: 37° C.
For another data set, the target named is bsNOS (Bacillus subtilis (strain 168), UniProt O34453). In words: Imidazole displacement, spectral binding constant KS. The conditions noted are these: 50 μM H4B.
Sequence of bsNOS (O34453 whole entry): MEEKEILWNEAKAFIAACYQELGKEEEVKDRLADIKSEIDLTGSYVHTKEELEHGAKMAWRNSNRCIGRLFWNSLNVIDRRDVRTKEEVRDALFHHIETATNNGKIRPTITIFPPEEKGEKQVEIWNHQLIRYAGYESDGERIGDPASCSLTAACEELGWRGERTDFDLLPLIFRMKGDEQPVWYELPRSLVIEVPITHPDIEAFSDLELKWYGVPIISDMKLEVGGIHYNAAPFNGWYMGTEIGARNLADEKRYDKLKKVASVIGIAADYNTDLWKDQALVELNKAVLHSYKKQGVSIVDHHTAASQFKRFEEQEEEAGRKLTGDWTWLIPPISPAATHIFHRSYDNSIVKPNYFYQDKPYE
The target in another data set is human nNOS (Homo sapiens (Human), UniProt P29475). Kind of data set: Hemoglobin capture assay, Ki (Example 159). It is filed as biochemical.
Another data set concerns the target bovine eNOS (Bos taurus (Bovine), UniProt P29473). Kind of data set: Hemoglobin capture assay, Ki (Example 159). It is filed as biochemical.
The target of the next data set is human eNOS (Homo sapiens (Human), UniProt P29474). Kind of data set: Hemoglobin capture assay, Ki (Example 159). The class given is biochemical.
Data set [5] addresses T1, CYP2C8. The note with it: 10 μM.
[6] abbreviates: human, microsomes, 0 h, 1 μM, pH 7.4.

Values joined by “and” are separate entries in the source; they are usually repeats but may differ in a detail not shown here. Identical values can stand only once. Marks after values point to notes of the source that are not given here.

T1 sequence (P10632 whole entry): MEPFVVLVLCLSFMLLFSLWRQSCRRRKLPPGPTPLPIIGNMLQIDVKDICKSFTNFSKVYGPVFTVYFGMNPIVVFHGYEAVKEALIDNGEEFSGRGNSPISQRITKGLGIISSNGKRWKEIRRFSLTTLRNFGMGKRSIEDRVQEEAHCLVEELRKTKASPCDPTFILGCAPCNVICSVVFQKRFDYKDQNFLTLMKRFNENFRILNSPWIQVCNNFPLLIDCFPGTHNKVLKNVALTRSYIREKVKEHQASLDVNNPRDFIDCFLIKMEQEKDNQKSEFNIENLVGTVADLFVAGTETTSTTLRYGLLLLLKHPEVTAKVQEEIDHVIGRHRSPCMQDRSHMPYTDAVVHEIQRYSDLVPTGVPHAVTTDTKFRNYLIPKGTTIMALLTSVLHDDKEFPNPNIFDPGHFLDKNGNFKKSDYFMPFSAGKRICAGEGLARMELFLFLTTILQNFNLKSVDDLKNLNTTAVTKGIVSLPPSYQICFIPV
Sequence of CYP1A2 (P05177 whole entry): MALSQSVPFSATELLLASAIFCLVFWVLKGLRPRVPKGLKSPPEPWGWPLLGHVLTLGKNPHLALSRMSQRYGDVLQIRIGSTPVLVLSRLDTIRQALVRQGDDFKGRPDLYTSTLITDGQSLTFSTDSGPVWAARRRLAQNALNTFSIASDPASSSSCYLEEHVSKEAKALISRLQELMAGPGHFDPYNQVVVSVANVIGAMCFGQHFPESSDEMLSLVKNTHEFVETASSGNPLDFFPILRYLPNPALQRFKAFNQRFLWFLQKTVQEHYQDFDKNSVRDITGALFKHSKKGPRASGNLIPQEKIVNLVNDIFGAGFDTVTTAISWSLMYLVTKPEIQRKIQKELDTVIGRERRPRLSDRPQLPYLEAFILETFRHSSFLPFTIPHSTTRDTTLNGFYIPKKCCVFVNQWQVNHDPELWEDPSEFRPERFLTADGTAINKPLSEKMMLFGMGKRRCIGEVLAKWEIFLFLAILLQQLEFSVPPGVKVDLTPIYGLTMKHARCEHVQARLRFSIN
Sequence of CYP2D6 (P10635 whole entry): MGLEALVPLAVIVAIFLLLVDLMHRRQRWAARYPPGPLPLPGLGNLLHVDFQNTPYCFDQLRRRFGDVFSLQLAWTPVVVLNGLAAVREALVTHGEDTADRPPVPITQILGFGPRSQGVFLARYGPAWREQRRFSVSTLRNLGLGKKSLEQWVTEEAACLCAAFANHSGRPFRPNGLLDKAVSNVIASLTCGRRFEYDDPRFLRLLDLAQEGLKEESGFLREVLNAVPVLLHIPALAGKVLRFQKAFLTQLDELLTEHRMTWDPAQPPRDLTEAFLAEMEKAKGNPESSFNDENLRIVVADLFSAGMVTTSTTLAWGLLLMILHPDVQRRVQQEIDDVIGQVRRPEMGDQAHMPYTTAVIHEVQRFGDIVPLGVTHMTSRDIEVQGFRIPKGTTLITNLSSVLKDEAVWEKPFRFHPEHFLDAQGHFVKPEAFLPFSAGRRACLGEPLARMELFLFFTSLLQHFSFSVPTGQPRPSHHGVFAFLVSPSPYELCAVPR

What is called inhibition is the relative decrease from the control value, in per cent. The low end stands for little suppression, the high end for strong suppression. Usually half-life stands for how long it takes for the measured level to halve. A lower half-life goes with fast loss. For `CNCCCc1cncc(CCc2cc(C)cc(N)n2)c1` [Compound 14j, 4-Methyl-6-(2-(5-(3-(methylamino)propyl)pyridin-3-yl)ethyl)pyridin-2-amine], the inhibition at 10 µM was 2% against CYP2C8 [1] and 8% on CYP2B6. In “in vitro [2]”, the recovery at 4 h, 5 μM is 91%. Also, the inhibition at 10 min, 10 µM against CYP2D6 came out at 6%; on CYP2C9 it was 0%; against CYP1A2, 9%. Also, the half-life at 1 μM in the data set “in vitro [3]” was > 1 h. Further, in data set [4], the “% compound remaining at 4 h” value is given as 90%. Also, the “% Remaining, 90 minutes (−NADPH)” value (1 μM) is 78^b % and 78%. Moreover, the “CLh, int” value (1 μM) is recorded as 10.4 mL/min/kg. Moreover, under “1 μM, heat inactivated microsomes minus NADPH”, the “% Remaining, 90 minutes (Buffer)” value was 95^b % and 95%. In addition, the “% of the compound lost” value (1 μM, in 60 min in the absence of NADPH or in 90 min in the presence of NADPH) is 23%. Besides, under setting [6], the “Percentage in HLM, Minus NADPH, 0 min” value is 100%. Besides, the “Percentage in HLM, Plus NADPH, 0 min” value under setting [6] came out at 100%. The “Percentage in HLM, Plus NADPH, 45 min” value (human, microsomes, […], 1 μM, pH 7.4) was 87%. In addition, the “Percentage in HLM, Heat inactivated microsomes, 0 min” value (minus NADPH (buffer control)) is given as 100%.
With `NC(=NCCC[C@H](N)C(=O)O)NO` [NOHA, N-omega-hydroxy-L-arginine], the “fold difference in binding (KS) in presence vs absence of H4B” value on bsNOS came out at 1.2 fold.
As usually defined, the Ki is a dissociation constant, usually derived from enzyme kinetics or from competition with a known ligand. Consider `Cc1cc(N)nc(CCc2cncc(CCCN(C)C)c2)c1` [Compound 14k, 6-(2-(5-(3-(Dimethylamino)propyl)pyridin-3-yl)ethyl)-4-methylpyridin-2-amine], for which the inhibition constant (Ki) at human nNOS was determined as 0.037 µM; at bovine eNOS, 16.6 µM; on human eNOS, 39.5 µM.
`O=c1c(O)c(-c2ccc(O)c(O)c2)oc2cc(O)cc(O)c12` [Quercetin]: the “% inhibition CYP2C8” value at CYP2C8 [5] was 95%.
